Results published in a melting point compilation (Tetko et al.; mined from patent text by program, amines drawn as free bases though some values may be those of a salt).
Residues, ends and D or L forms follow the SMILES beside them. *: point of attachment. Tos = Cc1ccc(S(=O)(=O)*)cc1; OtBu = CC(C)(C)O*

First: Cc1cc(-c2cc(F)c(F)cc2-c2ccc(S(C)(=O)=O)cc2)ccc1F
Second: Cc1ccccc1CC(C(=O)Nc1nc2cc(Cl)ccc2o1)c1ccc(S(C)(=O)=O)cc1 (configuration not stated)
The melting point of the first is lower: 167 to 168 °C for the first, 184 to 185 °C for the second.

First: Cc1cc2c(=O)c(C(=O)O)cn(-c3cc(N)c(F)cc3F)c2c([N+](=O)[O-])c1F
Second: CCOC(=O)c1cn(-c2nc(N)c(F)cc2F)c2c(Cl)c(NCC(O)COC3CNC3)c(F)cc2c1=O (configuration not stated)
The melting point of the first is higher: 236 to 242 °C for the first, 148 to 152 °C for the second.

First: Cc1nc2c(N)nc3ccccc3c2n1CC1(O)CCC1
Second: CCOC(=O)c1cn2c(=O)n(C)c3ccccc3n2c1=O
The melting point of the first is higher: greater than 250 °C for the first, 243 to 244 °C for the second.

Compared with `CCCCC[C@H]1CC[C@H](c2ncc(-c3ccc(CCCC)cc3)cn2)CC1`, `CC(C)OC(=O)N1CCC(c2nc3cc(-c4ccc(-n5cnnn5)cc4F)ccc3o2)CC1` is higher in melting point: 87 °C for the first, 168 to 171 °C for the second.

First: Clc1cc(N2CCNCC2)nc(N2CCCC2)n1
Second: Cc1ccc2c3c(ccc2n1)OC[C@H](CN1CCN(c2ccc(C)c(C)c2)CC1)O3
The melting point of the first is lower: 89 to 100 °C for the first, 118 to 120 °C for the second.

First: CCOC(=O)CCCOc1ccc(C23CC4CC(CC(C4)C2)C3)cc1
Second: CCCCOc1ccc([N+](=O)[O-])c(CO)c1
The melting point of the first is lower: 45 to 46 °C for the first, 47 to 49 °C for the second.

First: Cc1nc(C)c(-c2ccnc(Nc3cccnc3)n2)s1
Second: COc1ccc(-c2ncsc2-c2ccc(OC)cc2)cc1
The melting point of the first is higher: 159 to 162 °C for the first, 98 to 99 °C for the second.

Compared with `O=C(O)C(=O)c1ccc(OCCOc2cc3ccccc3cc2OCCOc2ccccc2)cc1`, `CSc1ccc(-c2nn(Cc3ccccc3)c(=O)cc2-c2ccccc2)cc1` is lower in melting point: 176 to 177 °C for the first, 157 to 158 °C for the second.

First: N#Cc1cccc(-c2nc(=O)c3ccccc3s2)c1
Second: O=C1[C@H]2CCC[C@H]2Nc2ccccc2N1Cc1cccc2ccccc12 (relative stereo)
The melting point of the first is higher: 200 °C for the first, 126 to 128 °C for the second.

First: COc1cccc(CNC(=O)c2cc3c(=O)n(CCOc4ccc(Br)cc4)c(=O)n(C)c3s2)c1
Second: COC(=O)c1c(-c2ccc(F)cc2)c2cc(OCc3ccccc3)ccc2c(=O)n1CC(C)C
The melting point of the first is higher: 165 to 167 °C for the first, 118 to 119 °C for the second.

First: CCCCc1c2c(nc3cc(F)c(F)cc13)-c1cc3c(c(=O)n1C2)COC(=O)CC3(O)CC (configuration not stated)
Second: CCCOc1ccc(/C=C/C(=O)OC(C)(C)C)cc1-c1nc2c(CCC)nn(C)c2c(=O)[nH]1
The melting point of the first is higher: greater than 275 °C for the first, 167 to 168 °C for the second.

`CCOc1ncc(S(=O)(=O)N2CCN(CC)CC2)cc1-c1nc2c(CC)n(CCOC)nc2c(=O)[nH]1` and `CCOc1cc(C(=O)N2CCc3cc(O)ccc3C2)cc(OCC)c1OCC` cannot be ordered by melting point: 158 to 160 °C for the first, 158 °C for the second.

First: Cc1ccc(S(=O)(=O)O[C@@H]2CCCN(S(=O)(=O)c3ccc(C)cc3)C2)cc1
Second: Cc1ccc(S(=O)(=O)N2CCC[C@H]2C(=O)N[C@@H](CC(=O)OC(C)(C)C)C(=O)O)cc1 (Tos-Pro-Asp(OtBu)-OH)
The melting point of the first is lower: 140 to 147 °C for the first, 153 to 155 °C for the second.

Compared with `CCOC(=O)C(=O)Nc1ccc2ccccc2c1`, `COc1cc(CCC(=O)Nc2nc3ccccc3s2)ccc1C(=O)/C=C/C(=O)O` is higher in melting point: 118 to 120 °C for the first, 260 to 261 °C for the second.

First: COC1CN(C(C)CC(C(=O)N(C)C)(c2ccccc2)c2ccccc2)CCC1NC(=O)c1cccc(C(F)(F)F)c1 (configuration not stated)
Second: COC(=O)C(CC(F)(F)F)Nc1nc(-c2ccc(Br)cc2)cs1 (configuration not stated)
The melting point of the first is higher: 198 °C for the first, 113 to 114 °C for the second.

Compared with `O=[N+]([O-])c1ccc2ncnc(Nc3cc(Cl)c(Cl)cc3F)c2c1`, `O=C1c2ccccc2C(=O)N1Cc1cc(Cl)ccc1OCc1cccnc1` is lower in melting point: 270 to 271 °C for the first, 173 to 175 °C for the second.

First: CCSc1cc(C)nc(SCC)c1NC(=O)CCCCCCSc1nc2ccccc2[nH]1
Second: NC(=S)NNC(=O)CCCCc1ccccc1
The melting point of the first is higher: 151 to 156 °C for the first, 140 to 141 °C for the second.

First: CCOC(=O)Cc1csc(-c2cc3cccc(NS(=O)(=O)c4cccs4)c3[nH]2)n1
Second: C=Cc1cnc(C)c(OC(C)=O)c1CSC(C)=O
The melting point of the first is higher: 161 to 162 °C for the first, 72 to 73 °C for the second.

In the case of `O=Cc1c(O)ccc2c1OCCO2`, the melting point is reported as 62 to 63 °C.
